This is an account of results in the RepoRT retention time repository (doi:10.1016/j.jhazmat.2019.121712).

A short description of this data set: Thermo Scientific Acclaim RSLC 120 C18, 100 × 2.1 mm, 2.2 µm, 30 °C; A: 90% water + 10% methanol + 0.01% formic acid + 5 mM ammonium formate; B: methanol + 0.01% formic acid + 5 mM ammonium formate; gradient (min/%B) 0.1/1 3/39 14/99.9 16/99.9. The note with it: stereoisomer not certain.
On to `O=C1OC(c2ccc(O)cc2)(c2ccc(O)cc2)c2ccccc21`, for which the LC retention time came out at 7.06 min.
Regarding `CCCCCn1cc(C(=O)c2cccc3ccccc23)c2ccc(OC)cc21`, the LC retention time was 12.4 min.
For `CCC(=O)OC(Cc1ccccc1)(c1ccccc1)C(C)CN(C)C` (stereo unspecified) the value was 7.73 min; for `CC(CC(c1ccccc1)c1ccccc1)NC(C)(C)C` (stereo unspecified), 7.91 min; for `CC(N)Cc1ccccc1` (stereo unspecified), 4.16 min.
For `NC(=O)N1c2ccccc2CC(=O)c2ccccc21` the value was 6.46 min; for `c1cc2c(c(NC3=NCCN3)c1)CCC2`, 4.76 min.
To `CCCCCCn1c(=O)c2c(ncn2C)n(C)c1=O` belongs 9.44 min; to `C=CCN1CCC23c4c5ccc(O)c4OC2C(O)C=CC3C1C5` (stereo unspecified), 3.39 min.
In the case of `CCC(=O)C1C(=O)CC(C(=O)O)CC1=O` (stereo unspecified), the LC retention time was found to be 5.63 min.
For `Nc1nc(N)c2nc(-c3ccccc3)c(N)nc2n1` the value was 4.68 min; for `CCC(C)C(=O)OC1CC(C)C=C2C=CC(C)C(CCC3CC(O)CC(=O)O3)C21` (stereo unspecified), 12 min.
`CC12CCC3=C4CCC(=O)C=C4CCC3C1CCC2(O)CC#N` (stereo unspecified): the LC retention time amounted to 8.09 min.
For `Cc1c(NC(=O)c2cccnc2)c(=O)n(-c2ccccc2)n1C` the value was 4.56 min; for `Cc1ccc(NC=O)c(C)c1`, 6.67 min; for `CCC1CN2CCc3c([nH]c4cccc(OC)c34)C2CC1C(=COC)C(=O)OC` (stereo unspecified), 6.23 min.
To `c1ccc(CN(CCN2CCCC2)c2ccccc2)cc1` belongs 7.19 min.
To `CC1=C(C(=O)O)N2C(=O)C(NC(=O)C(N)c3ccc(O)cc3)C2SC1` (stereo unspecified) belongs 2.84 min.
For the compound `Cc1ccc(NS(=O)(=O)N(C)C)cc1`, the LC retention time stood at 7.25 min.
Consider `CCCCCCn1cc(C(=O)c2cccc3ccccc23)cc1-c1ccccc1`, for which the LC retention time turned out to be 13.3 min.
To `CCOP(=S)(OCC)ON=C(C#N)c1ccccc1` belongs 11.2 min.
In the case of `Cc1ccc(C(CCN(C)C)c2ccccc2)cc1` (stereo unspecified), the LC retention time came to 7.47 min.
To `COc1cc(OC)nc(NC(=O)NS(=O)(=O)c2ncccc2C(=O)N(C)C)n1` belongs 6.62 min.
As for `CCNc1nc(NC(C)CC)nc(OC)n1` (stereo unspecified), the LC retention time came to 8.79 min.
To `Cc1oc(C)c(C(=O)Nc2ccccc2)c1C` belongs 8.79 min; to `CCNc1nc(NC(C)(C)C)nc(SC)n1`, 10.2 min.
To `CCCCCCC(C)(C)c1cc(O)c2c(c1)OC(C)(C)C1CC=C(CO)CC21` (stereo unspecified) belongs 13.5 min; to `CCN(CC)CCOC(=O)C1(C2CCCCC2)CCCCC1`, 9.99 min; to `CN1CCC(=C2c3ccccc3C=Cc3ccccc32)CC1`, 7.89 min.
Take `COc1ccc(CC2c3cc(OC)c(OC)cc3CCN2C)cc1OC` (stereo unspecified): the LC retention time was found to be 4.71 min.
For `CC(CCN1CCOCC1)OC(=O)C1(c2ccccc2)CCOCC1` (stereo unspecified) the value was 6.12 min.
For `CN1C(=O)CCC1c1cccnc1` (stereo unspecified) the value was 3.75 min; for `CC(C)=CCN1CCC2(C)c3cc(O)ccc3CC1C2C` (stereo unspecified), 5.46 min; for `CCCCCn1cc(C(=O)c2cccc3ccccc23)c2c(O)cccc21`, 12.5 min.
For `CC(NCCC(c1ccccc1)c1ccccc1)c1ccccc1` (stereo unspecified) the value was 8.54 min; for `CNC(=O)Oc1cc(C)c(S(C)=O)c(C)c1` (stereo unspecified), 4.86 min; for `CC12CCC(=O)C=C1CCC1C2CCC2(C)C(C(=O)COC(=O)CCc3ccccc3)CCC12` (stereo unspecified), 13 min.
In the case of `CCN(CC)C(=O)c1cccc(C)c1`, the LC retention time stood at 8.2 min.
To `CCCC(C(=O)c1ccc2c(c1)OCO2)N1CCCC1` (stereo unspecified) belongs 5.18 min; to `CCOc1ccc(NC(=O)CC(C)O)cc1` (stereo unspecified), 6.27 min.
On to `CCOc1ccc(S(=O)(=O)O)c2cccnc12`, for which the LC retention time was 3.56 min.
